Numbered stars: 1 amine (or outer) side, 2 acyl side, 3 side chain; on linkers, the order of the positions; unused ones are H or OH. Square brackets hold non-standard residues; d marks the D form. Side chains are listed from the residue outwards. Peptide text beside a SMILES is read from it. * marks the point of attachment. Ala(1H-tetrazol-5-yl) = N[C@@H](Cc1nnn[nH]1)C(=O)O; C20 diacid = O=C(O)CCCCCCCCCCCCCCCCCCC(=O)*; αMePhe(2-F) = C[C@](N)(Cc1ccccc1F)C(=O)O; γGlu = O=C(O)[C@H](CCC(=O)[*:2])N[*:1]; αMeF = C[C@](N)(Cc1ccccc1)C(=O)O; 2Pal = N[C@@H](Cc1ccccn1)C(=O)O; αMeL = CC(C)C[C@](C)(N)C(=O)O; AEEA = NCCOCCOCC(=O)O; Aib = CC(C)(N)C(=O)O
Columns and labels:
[1] = target: T1, gastric inhibitory peptide receptor (GIPR) (Homo sapiens, UniProt P48546); test: cAMP pharmacological functional assay in presence of casein, hGIPR; type: cell-based; conditions: HEK293 cells expressing hGIPR, 0.1% Casein, geometric mean; read-out: hGIPR cAMP Rel EC50 nM (SEM, n)
T1 sequence (P48546 22-466): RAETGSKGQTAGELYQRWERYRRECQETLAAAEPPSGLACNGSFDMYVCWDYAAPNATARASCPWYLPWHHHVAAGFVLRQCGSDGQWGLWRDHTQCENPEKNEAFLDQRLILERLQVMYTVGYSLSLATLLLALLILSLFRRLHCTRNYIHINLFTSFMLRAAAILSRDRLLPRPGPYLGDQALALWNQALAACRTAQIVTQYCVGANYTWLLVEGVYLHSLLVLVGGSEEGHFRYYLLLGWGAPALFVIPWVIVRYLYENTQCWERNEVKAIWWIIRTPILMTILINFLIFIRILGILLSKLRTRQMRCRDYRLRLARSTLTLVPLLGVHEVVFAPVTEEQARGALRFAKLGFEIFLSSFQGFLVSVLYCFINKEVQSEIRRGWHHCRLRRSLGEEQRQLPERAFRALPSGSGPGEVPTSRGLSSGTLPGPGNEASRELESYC

[2] = target: human GLP-1 receptor (GLP-1R) (Homo sapiens, UniProt P43220); test: cAMP pharmacological functional assay in presence of casein, hGLP-1R; type: cell-based; conditions: HEK293 cells expressing hGLP-1R, 0.1% Casein, geometric mean; read-out: hGLP1R cAMP Rel EC50 nM (SEM, n)
Chain of human GLP-1 receptor (GLP-1R) (P43220 24-463): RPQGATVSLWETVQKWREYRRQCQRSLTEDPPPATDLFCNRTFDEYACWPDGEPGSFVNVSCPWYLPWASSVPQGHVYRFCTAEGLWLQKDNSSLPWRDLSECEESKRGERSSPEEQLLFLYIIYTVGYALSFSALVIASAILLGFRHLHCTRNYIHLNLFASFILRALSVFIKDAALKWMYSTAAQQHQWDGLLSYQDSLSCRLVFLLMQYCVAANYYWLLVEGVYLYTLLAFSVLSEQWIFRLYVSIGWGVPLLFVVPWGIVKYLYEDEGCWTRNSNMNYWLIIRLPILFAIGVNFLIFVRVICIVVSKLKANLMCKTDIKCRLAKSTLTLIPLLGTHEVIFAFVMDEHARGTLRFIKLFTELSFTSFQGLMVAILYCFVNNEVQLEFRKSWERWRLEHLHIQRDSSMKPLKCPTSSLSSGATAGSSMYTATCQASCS

CC[C@H](C)[C@H](NC(=O)[C@H](CC(C)C)NC(=O)[C@H](Cc1ccc(O)cc1)NC(=O)[C@H](CCC(=O)O)NC(=O)[C@@H](NC(=O)[C@H](Cc1ccccc1)NC(=O)[C@@H](NC(=O)C(C)(C)NC(=O)[C@H](CCC(N)=O)NC(=O)[C@H](C)NC(=O)[C@H](CCCCNC(=O)COCCOCCNC(=O)COCCOCCNC(=O)CC[C@H](NC(=O)CCCCCCCCCCCCCCCCCCC(=O)O)C(=O)O)NC(=O)[C@H](CCCCN)NC(=O)[C@H](CC(=O)O)NC(=O)[C@H](CC(C)C)NC(=O)[C@](C)(CC(C)C)NC(=O)[C@@H](NC(=O)[C@H](CO)NC(=O)[C@H](Cc1ccc(O)cc1)NC(=O)[C@H](CC(=O)O)NC(=O)[C@H](CO)NC(=O)[C@@H](NC(=O)[C@](C)(Cc1ccccc1)NC(=O)[C@@H](NC(=O)CNC(=O)[C@H](CCC(=O)O)NC(=O)C(C)(C)NC(=O)[C@@H](N)Cc1ccc(O)cc1)[C@@H](C)O)[C@@H](C)O)[C@@H](C)CC)[C@@H](C)CC)[C@@H](C)CC)C(=O)N[C@@H](CCC(=O)O)C(=O)NCC(=O)NCC(=O)N1CCC[C@H]1C(=O)N[C@@H](CO)C(=O)N[C@@H](CO)C(=O)NCC(=O)N[C@@H](C)C(=O)N1CCC[C@H]1C(=O)N1CCC[C@H]1C(=O)N1CCC[C@H]1C(=O)N[C@@H](CO)C(N)=O [Example 141] (H-Y[Aib]EGT[αMeF]TSDYSI[αMeL]LDKK([AEEA-AEEA-γGlu-C20 diacid])AQ[Aib]IFIEYLIEGGPSSGAPPPS-NH2; N-terminus assumed)
EC50 [1]: 0.2 nM | EC50 [2]: 0.0975 nM

CC[C@H](C)[C@H](NC(=O)[C@H](CC(C)C)NC(=O)[C@H](Cc1ccc(O)cc1)NC(=O)[C@H](CCC(N)=O)NC(=O)[C@@H](NC(=O)[C@H](Cc1ccccc1)NC(=O)[C@H](CCC(=O)O)NC(=O)C(C)(C)NC(=O)[C@H](CCC(N)=O)NC(=O)[C@H](C)NC(=O)[C@H](CCCCNC(=O)COCCOCCNC(=O)COCCOCCNC(=O)CC[C@H](NC(=O)CCCCCCCCCCCCCCCCCCC(=O)O)C(=O)O)NC(=O)[C@H](CCC(=O)O)NC(=O)[C@H](CC(=O)O)NC(=O)[C@H](CC(C)C)NC(=O)[C@](C)(CC(C)C)NC(=O)[C@@H](NC(=O)[C@H](CO)NC(=O)[C@H](Cc1ccc(O)cc1)NC(=O)[C@H](CC(=O)O)NC(=O)[C@H](CO)NC(=O)[C@@H](NC(=O)[C@](C)(Cc1ccccc1F)NC(=O)[C@@H](NC(=O)CNC(=O)[C@H](CCC(=O)O)NC(=O)C(C)(C)NC(=O)[C@@H](N)Cc1ccc(O)cc1)[C@@H](C)O)[C@@H](C)O)[C@@H](C)CC)[C@@H](C)CC)C(=O)N[C@@H](CCC(=O)O)C(=O)NCC(=O)NCC(=O)N1CCC[C@H]1C(=O)N[C@@H](CO)C(=O)N[C@@H](CO)C(=O)NCC(=O)N[C@@H](C)C(=O)N1CCC[C@H]1C(=O)N1CCC[C@H]1C(=O)N1CCC[C@H]1C(=O)N[C@@H](CO)C(N)=O [Example 146] (H-Y[Aib]EGT[αMePhe(2-F)]TSDYSI[αMeL]LDEK([AEEA-AEEA-γGlu-C20 diacid])AQ[Aib]EFIQYLIEGGPSSGAPPPS-NH2)
EC50 [1]: 0.0583 nM | EC50 [2]: 0.0604 nM

CC[C@H](C)[C@H](NC(=O)[C@H](Cc1ccccc1)NC(=O)[C@H](CCC(=O)O)NC(=O)C(C)(C)NC(=O)[C@H](CCC(N)=O)NC(=O)[C@H](C)NC(=O)[C@H](CCCCNC(=O)COCCOCCNC(=O)COCCOCCNC(=O)CC[C@H](NC(=O)CCCCCCCCCCCCCCCCCCC(=O)O)C(=O)O)NC(=O)[C@H](CCC(=O)O)NC(=O)[C@H](CC(=O)O)NC(=O)[C@H](CC(C)C)NC(=O)[C@](C)(CC(C)C)NC(=O)[C@@H](NC(=O)[C@H](CO)NC(=O)[C@H](Cc1ccc(O)cc1)NC(=O)[C@H](CC(=O)O)NC(=O)[C@H](CO)NC(=O)[C@@H](NC(=O)[C@](C)(Cc1ccccc1F)NC(=O)[C@@H](NC(=O)CNC(=O)[C@H](CCC(=O)O)NC(=O)C(C)(C)NC(=O)[C@@H](N)Cc1ccc(O)cc1)[C@@H](C)O)[C@@H](C)O)[C@@H](C)CC)C(=O)N[C@@H](C)C(=O)N[C@@H](Cc1ccc(O)cc1)C(=O)N[C@@H](CC(C)C)C(=O)N[C@H](C(=O)N[C@@H](CCC(=O)O)C(=O)NCC(=O)NCC(=O)N1CCC[C@H]1C(=O)N[C@@H](CO)C(=O)N[C@@H](CO)C(=O)NCC(=O)N[C@@H](C)C(=O)N1CCC[C@H]1C(=O)N1CCC[C@H]1C(=O)N1CCC[C@H]1C(=O)N[C@@H](CO)C(N)=O)[C@@H](C)CC [Example 148] (H-Y[Aib]EGT[αMePhe(2-F)]TSDYSI[αMeL]LDEK([AEEA-AEEA-γGlu-C20 diacid])AQ[Aib]EFIAYLIEGGPSSGAPPPS-NH2)
EC50 [1]: 0.043 nM | EC50 [2]: 0.0626 nM

CC[C@H](C)[C@H](NC(=O)[C@H](CC(C)C)NC(=O)[C@H](Cc1ccc(O)cc1)NC(=O)[C@@H]1CCCN1C(=O)[C@@H](NC(=O)[C@H](Cc1ccccc1)NC(=O)[C@H](CCC(=O)O)NC(=O)C(C)(C)NC(=O)[C@H](CCC(N)=O)NC(=O)[C@H](C)NC(=O)[C@H](CCCCNC(=O)COCCOCCNC(=O)COCCOCCNC(=O)CC[C@H](NC(=O)CCCCCCCCCCCCCCCCCCC(=O)O)C(=O)O)NC(=O)[C@H](CCC(=O)O)NC(=O)[C@H](CC(=O)O)NC(=O)[C@H](CC(C)C)NC(=O)[C@](C)(CC(C)C)NC(=O)[C@@H](NC(=O)[C@H](CO)NC(=O)[C@H](Cc1ccc(O)cc1)NC(=O)[C@H](CC(=O)O)NC(=O)[C@H](CO)NC(=O)[C@@H](NC(=O)[C@](C)(Cc1ccccc1F)NC(=O)[C@@H](NC(=O)CNC(=O)[C@H](CCC(=O)O)NC(=O)C(C)(C)NC(=O)[C@@H](N)Cc1ccc(O)cc1)[C@@H](C)O)[C@@H](C)O)[C@@H](C)CC)[C@@H](C)CC)C(=O)N[C@@H](CCC(=O)O)C(=O)NCC(=O)NCC(=O)N1CCC[C@H]1C(=O)N[C@@H](CO)C(=O)N[C@@H](CO)C(=O)NCC(=O)N[C@@H](C)C(=O)N1CCC[C@H]1C(=O)N1CCC[C@H]1C(=O)N1CCC[C@H]1C(=O)N[C@@H](CO)C(N)=O [Example 151] (H-Y[Aib]EGT[αMePhe(2-F)]TSDYSI[αMeL]LDEK([AEEA-AEEA-γGlu-C20 diacid])AQ[Aib]EFIPYLIEGGPSSGAPPPS-NH2; N-terminus assumed)
EC50 [1]: 0.41 nM | EC50 [2]: 1.6 nM

CC[C@H](C)[C@H](NC(=O)[C@H](CC(C)C)NC(=O)[C@H](Cc1ccc(O)cc1)NC(=O)[C@H](CCC(=O)O)NC(=O)[C@@H](NC(=O)[C@H](Cc1ccccc1)NC(=O)[C@H](CCC(=O)O)NC(=O)C(C)(C)NC(=O)[C@H](CCC(N)=O)NC(=O)[C@H](C)NC(=O)[C@H](CCCCNC(=O)COCCOCCNC(=O)COCCOCCNC(=O)CC[C@H](NC(=O)CCCCCCCCCCCCCCCCCCC(=O)O)C(=O)O)NC(=O)[C@H](CCC(=O)O)NC(=O)[C@H](CC(=O)O)NC(=O)[C@H](CC(C)C)NC(=O)[C@](C)(CC(C)C)NC(=O)[C@@H](NC(=O)[C@H](CO)NC(=O)[C@H](Cc1nn[nH]n1)NC(=O)[C@H](CC(=O)O)NC(=O)[C@H](CO)NC(=O)[C@@H](NC(=O)[C@](C)(Cc1ccccc1F)NC(=O)[C@@H](NC(=O)CNC(=O)[C@H](CCC(=O)O)NC(=O)C(C)(C)NC(=O)[C@@H](N)Cc1ccc(O)cc1)[C@@H](C)O)[C@@H](C)O)[C@@H](C)CC)[C@@H](C)CC)C(=O)N[C@@H](CCC(=O)O)C(=O)NCC(=O)NCC(=O)N1CCC[C@H]1C(=O)N[C@@H](CO)C(=O)N[C@@H](CO)C(=O)NCC(=O)N[C@@H](C)C(=O)N1CCC[C@H]1C(=O)N1CCC[C@H]1C(=O)N1CCC[C@H]1C(=O)N[C@@H](CO)C(N)=O [Example 155] (H-Y[Aib]EGT[αMePhe(2-F)]TSD[Ala(1H-tetrazol-5-yl)]SI[αMeL]LDEK([AEEA-AEEA-γGlu-C20 diacid])AQ[Aib]EFIEYLIEGGPSSGAPPPS-NH2; N-terminus assumed)
EC50 [1]: 0.266 nM | EC50 [2]: 0.495 nM

CC[C@H](C)[C@H](NC(=O)[C@H](CC(C)C)NC(=O)[C@H](Cc1ccc(O)cc1)NC(=O)[C@H](CCC(=O)O)NC(=O)[C@@H](NC(=O)[C@H](Cc1ccccc1)NC(=O)[C@H](CCC(=O)O)NC(=O)C(C)(C)NC(=O)[C@H](CCC(N)=O)NC(=O)[C@H](C)NC(=O)[C@H](CCCCNC(=O)COCCOCCNC(=O)COCCOCCNC(=O)CC[C@H](NC(=O)CCCCCCCCCCCCCCCCCCC(=O)O)C(=O)O)NC(=O)[C@H](CCC(=O)O)NC(=O)[C@H](CC(=O)O)NC(=O)[C@H](CC(C)C)NC(=O)[C@](C)(CC(C)C)NC(=O)[C@@H](NC(=O)[C@H](CO)NC(=O)[C@H](Cc1ccccn1)NC(=O)[C@H](CC(=O)O)NC(=O)[C@H](CO)NC(=O)[C@@H](NC(=O)[C@](C)(Cc1ccccc1F)NC(=O)[C@@H](NC(=O)CNC(=O)[C@H](CCC(=O)O)NC(=O)C(C)(C)NC(=O)[C@@H](N)Cc1ccc(O)cc1)[C@@H](C)O)[C@@H](C)O)[C@@H](C)CC)[C@@H](C)CC)C(=O)N[C@@H](CCC(=O)O)C(=O)NCC(=O)NCC(=O)N1CCC[C@H]1C(=O)N[C@@H](CO)C(=O)N[C@@H](CO)C(=O)NCC(=O)N[C@@H](C)C(=O)N1CCC[C@H]1C(=O)N1CCC[C@H]1C(=O)N1CCC[C@H]1C(=O)N[C@@H](CO)C(N)=O [Example 156] (H-Y[Aib]EGT[αMePhe(2-F)]TSD[2Pal]SI[αMeL]LDEK([AEEA-AEEA-γGlu-C20 diacid])AQ[Aib]EFIEYLIEGGPSSGAPPPS-NH2)
EC50 [1]: > 30 nM | EC50 [2]: 0.638 nM

Reference: US12252524B2, “GIP/GLP1 co-agonist compounds” (Eli Lilly and Company, priority 2018, dated 2025)
